Data published in the supplement of paper PMC10307832.

Assays:
Test in all cases: relative viability (nuclei count vs DMSO), 5 days (fraction); higher = more cells survive
[1] = compound: C1COCCN1C2=NC(=NC3=C2OC4=C3C=CC=N4)C5=CC(=CC=C5)NC(=O)C6=CN=C(C=C6)N + CC(=O)c1c(C)c2cnc(Nc3ccc(N4CCNCC4)cn3)nc2n(C2CCCC2)c1=O [Palbociclib] (partner 0.5 µM)
In short: (§1)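 Relative viability is defined as nuclei in treated wells over nuclei in vehicle wells. Duplicate plates were run and medians reported. Lung cancer cell lines in 1536-well plates were dosed by pin tool one day after seeding, with one drug or with a fixed anchor-drug dose plus five library-drug doses (not always all listed) in √10 steps, and nuclei were counted after 5 days.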

[2] = compound: C1COCCN1C2=NC(=NC3=C2OC4=C3C=CC=N4)C5=CC(=CC=C5)NC(=O)C6=CN=C(C=C6)N + CCNC(=O)c1noc(-c2cc(C(C)C)c(O)cc2O)c1-c1ccc(CN2CCOCC2)cc1 [Luminespib] (partner 0.01 µM)
In short: as §1

SGI-1776 + Alpelisib = compound: CN1CCC(CNc2ccc3ncc(-c4cccc(OC(F)(F)F)c4)n3n2)CC1 [SGI-1776] + Cc1nc(NC(=O)N2CCC[C@H]2C(N)=O)sc1-c1ccnc(C(C)(C)C(F)(F)F)c1 [Alpelisib] (partner 2 µM)
In short: as §1

Entinostat + Crizotinib = compound: Nc1ccccc1NC(=O)c1ccc(CNC(=O)OCc2cccnc2)cc1 [Entinostat] + C[C@@H](Oc1cc(-c2cnn(C3CCNCC3)c2)cnc1N)c1c(Cl)ccc(F)c1Cl [Crizotinib] (partner 1 µM)
In short: as §1

## UMC-11
[1]; first compound 0.02 µM
  relative viability: 0.347
[1]; first compound 0.06325 µM
  relative viability: 0.327
[1]; first compound 0.2 µM
  relative viability: 0.344
[1]; first compound 0.6325 µM
  relative viability: 0.324
[1]; first compound 2 µM
  relative viability: 0.265
[2]; first compound 0.02 µM
  relative viability: 1.13
[2]; first compound 0.06325 µM
  relative viability: 1.07
[2]; first compound 0.2 µM
  relative viability: 1.02
[2]; first compound 0.6325 µM
  relative viability: 1.07
[2]; first compound 2 µM
  relative viability: 0.628
SGI-1776 + Alpelisib; first compound 0.08 µM
  relative viability: 0.888
SGI-1776 + Alpelisib; first compound 0.8 µM
  relative viability: 1
SGI-1776 + Alpelisib; first compound 2.53 µM
  relative viability: 0.828
SGI-1776 + Alpelisib; first compound 8 µM
  relative viability: 0.671
Entinostat + Crizotinib; first compound 0.02 µM
  relative viability: 0.623
Entinostat + Crizotinib; first compound 0.06325 µM
  relative viability: 0.646
Entinostat + Crizotinib; first compound 0.2 µM
  relative viability: 0.363
Entinostat + Crizotinib; first compound 0.6325 µM
  relative viability: 0.109
Entinostat + Crizotinib; first compound 2 µM
  relative viability: 0.0765
